The record followed here is publication PMC9607427, “Novel 7-Chloro-(4-thioalkylquinoline) Derivatives: Synthesis and Antiproliferative Activity through Inducing Apoptosis and DNA/RNA Damage” (Pharmaceuticals, 2022).

Regarding `COc1ccccc1C(=O)OCCCSc1ccnc2cc(Cl)ccc12` [Compound 31, 3-[(7-Chloroquinolin-4-yl)sulfanyl]propyl-2-methoxybenzoate], the melting point fell in the range of 95 to 97 °C. The value for `COc1ccc(C(=O)OCC[S+]([O-])c2ccnc3cc(Cl)ccc23)cc1` (centres unmarked) [Compound 42, 2-[(7-Chloroquinolin-4-yl)sulfinyl]ethyl-4-methoxybenzoate] was 126 to 128 °C; that for `COc1ccc(C(=O)OCCSc2ccnc3cc(Cl)ccc23)c(OC)c1` [Compound 7, 2-[(7-Chloroquinolin-4-yl)sulfanyl]ethyl 2,4-dimethoxybenzoate] was 107 to 108 °C. Compound `Cc1ccc([N+](=O)[O-])c(C(=O)OCCSc2ccnc3cc(Cl)ccc23)c1` [Compound 18, 2-[(7-Chloroquinolin-4-yl)sulfanyl]ethyl 5-methyl-2-nitrobenzoate] displayed a melting point of 93 to 95 °C.

In the case of `COc1ccc(C(=O)OCCSc2ccnc3cc(Cl)ccc23)cc1[N+](=O)[O-]` [Compound 17, 2-[(7-Chloroquinolin-4-yl)sulfanyl]ethyl 4-methoxy-3-nitrobenzoate], the melting point is 171 to 173 °C.

`COc1cc(OC)c(C(=O)OCC[S+]([O-])c2ccnc3cc(Cl)ccc23)cc1OC` (centres unmarked) [Compound 45, 2-[(7-Chloroquinolin-4-yl)sulfinyl]ethyl-2,4,5-trimethoxybenzoate] gave a melting point of 151 to 153 °C. The value for `COc1cc(OC)cc(C(=O)OCCSc2ccnc3cc(Cl)ccc23)c1` [Compound 11, 2-[(7-Chloroquinolin-4-yl)sulfanyl]ethyl 3,5-dimethoxybenzoate] was 100 to 102 °C. To `Cc1cc(C)cc(C(=O)OCCCSc2ccnc3cc(Cl)ccc23)c1` [Compound 37, 3-[(7-Chloroquinolin-4-yl)sulfanyl]propyl-3,5-dimethylbenzoate] belongs 136 to 138 °C; to `COc1ccc(C(=O)OCCCSc2ccnc3cc(Cl)ccc23)cc1[N+](=O)[O-]` [Compound 35, 3-[(7-Chloroquinolin-4-yl)sulfanyl]propyl-4-methoxy-3-nitrobenzoate], 138 to 140 °C. The value for `O=C(OCCCSc1ccnc2cc(Cl)ccc12)c1ccc(Cl)cc1Cl` [Compound 34, 3-[(7-Chloroquinolin-4-yl)sulfanyl]propyl-2,4-dichlorobenzoate] was 88 to 89 °C. Take `COc1cc(OC)c(C(=O)OCCSc2ccnc3cc(Cl)ccc23)cc1OC` [Compound 13, 2-[(7-Chloroquinolin-4-yl)sulfanyl]ethyl 2,4,5-trimethoxybenzoate]: the melting point lay in the range of 134 to 135 °C. The value for `O=C(OCCSc1ccnc2cc(Cl)ccc12)c1cccc(Cl)c1` [Compound 16, 2-[(7-Chloroquinolin-4-yl)sulfanyl]ethyl 3-chlorobenzoate] was 94 to 96 °C; that for `COc1cccc(C(=O)OCCCSc2ccnc3cc(Cl)ccc23)c1OC` [Compound 24, 3-[(7-Chloroquinolin-4-yl)sulfanyl]propyl-2,3-dimethoxybenzoate] was 78 to 80 °C; that for `COc1ccc(C(=O)OCCCSc2ccnc3cc(Cl)ccc23)c(OC)c1OC` [Compound 28, 3-[(7-Chloroquinolin-4-yl)sulfanyl]propyl-2,3,4-trimethoxybenzoate] was 84 °C. To `COc1cc(OC)c(C(=O)OCCCSc2ccnc3cc(Cl)ccc23)cc1OC` [Compound 29, 3-[(7-Chloroquinolin-4-yl)sulfanyl]propyl-2,4,5-trimethoxybenzoate] belongs 118 to 120 °C. The value for `CC(C)(C)c1ccc(C(=O)OCCCSc2ccnc3cc(Cl)ccc23)cc1` [Compound 39, 3-[(7-Chloroquinolin-4-yl)sulfanyl]propyl-4-tert-butylbenzoate] was 88 to 90 °C. With `Cc1ccc([N+](=O)[O-])c(C(=O)OCCCSc2ccnc3cc(Cl)ccc23)c1` [Compound 36, 3-[(7-Chloroquinolin-4-yl)sulfanyl]propyl-5-methyl-2-nitrobenzoate], the melting point was 91 to 92 °C. The value for `O=C(OCCSc1ccnc2cc(Cl)ccc12)c1ccc(C(F)(F)F)cc1` [Compound 20, 2-[(7-Chloroquinolin-4-yl)sulfanyl]ethyl 4-(trifluoromethyl)benzoate] was 134 to 136 °C; that for `COc1cc(C(=O)OCCCSc2ccnc3cc(Cl)ccc23)cc(OC)c1OC` [Compound 30, 3-[(7-Chloroquinolin-4-yl)sulfanyl]propyl-3,4,5-trimethoxybenzoate] was 98 to 100 °C.

The compound `COc1cccc(C(=O)OCC[S+]([O-])c2ccnc3cc(Cl)ccc23)c1OC` (centres unmarked) [Compound 43, 2-[(7-Chloroquinolin-4-yl)sulfinyl]ethyl-2,3-dimethoxybenzoate] registered a melting point of 110 °C.

On to `O=C(OCCCSc1ccnc2cc(Cl)ccc12)c1ccc(C(F)(F)F)cc1` [Compound 38, 3-[(7-Chloroquinolin-4-yl)sulfanyl]propyl-4-(trifluoromethyl)benzoate], for which the melting point fell in the range of 122 to 124 °C.

`O=C(OCCCSc1ccnc2cc(Cl)ccc12)c1ccccc1F` [Compound 40, 3-[(7-Chloroquinolin-4-yl)sulfanyl]propyl-2-fluorobenzoate] came in with a melting point of 112 to 113 °C. The value for `COc1ccc(OC)c(C(=O)OCC[S+]([O-])c2ccnc3cc(Cl)ccc23)c1` (centres unmarked) [Compound 44, 2-[(7-Chloroquinolin-4-yl)sulfinyl]ethyl-2,5-dimethoxybenzoate] was 112 to 113 °C; that for `O=C(OCCSc1ccnc2cc(Cl)ccc12)c1ccccc1Cl` [Compound 15, 2-[(7-Chloroquinolin-4-yl)sulfanyl]ethyl 2-chlorobenzoate] was 108 °C; that for `COc1ccc(C(=O)OCCSc2ccnc3cc(Cl)ccc23)cc1OC` [Compound 10, 2-[(7-Chloroquinolin-4-yl)sulfanyl]ethyl 3,4-dimethoxybenzoate] was 109 to 110 °C.

Take `COc1cc(C(=O)OCCSc2ccnc3cc(Cl)ccc23)cc(OC)c1OC` [Compound 14, 2-[(7-Chloroquinolin-4-yl)sulfanyl]ethyl 3,4,5-trimethoxybenzoate]: the melting point is 139 to 140 °C.

In the case of `COc1cccc(OC)c1C(=O)OCCSc1ccnc2cc(Cl)ccc12` [Compound 9, 2-[(7-Chloroquinolin-4-yl)sulfanyl]ethyl 2,6-dimethoxybenzoate], the melting point lay within 116 to 118 °C. To `Cc1cc(C)cc(C(=O)OCCSc2ccnc3cc(Cl)ccc23)c1` [Compound 19, 2-[(7-Chloroquinolin-4-yl)sulfanyl]ethyl 3,5-dimethylbenzoate] belongs 102 to 104 °C; to `COc1cccc(C(=O)OCCSc2ccnc3cc(Cl)ccc23)c1OC` [Compound 6, 2-[(7-Chloroquinolin-4-yl)sulfanyl]ethyl 2,3-dimethoxybenzoate], 108 to 109 °C. In turn, `COc1ccc(C(=O)OCCCSc2ccnc3cc(Cl)ccc23)cc1` [Compound 23, 3-[(7-Chloroquinolin-4-yl)sulfanyl]propyl-4-methoxybenzoate] registered a melting point of 106 to 108 °C. `COc1cc(C(=O)OCC[S+]([O-])c2ccnc3cc(Cl)ccc23)cc(OC)c1OC` (centres unmarked) [Compound 46, 2-[(7-Chloroquinolin-4-yl)sulfinyl]ethyl-3,4,5-trimethoxybenzoate] returned a melting point of 144 to 146 °C.

With `COc1ccc(C(=O)OCCCSc2ccnc3cc(Cl)ccc23)c(OC)c1` [Compound 25, 3-[(7-Chloroquinolin-4-yl)sulfanyl]propyl-2,4-dimethoxybenzoate], the melting point lay within 74 to 76 °C. To `COc1ccc(C(=O)OCCSc2ccnc3cc(Cl)ccc23)cc1` [Compound 5, 2-[(7-Chloroquinolin-4-yl)sulfanyl]ethyl-4-methoxybenzoate] belongs 116 to 118 °C; to `COc1ccc(OC)c(C(=O)OCCCSc2ccnc3cc(Cl)ccc23)c1` [Compound 26, 3-[(7-Chloroquinolin-4-yl)sulfanyl]propyl-2,5-dimethoxybenzoate], 97 to 98 °C; to `COc1ccc(C(=O)OCCSc2ccnc3cc(Cl)ccc23)c(OC)c1OC` [Compound 12, 2-[(7-Chloroquinolin-4-yl)sulfanyl]ethyl 2,3,4-trimethoxybenzoate], 94 to 96 °C. `COc1ccccc1C(=O)OCCSc1ccnc2cc(Cl)ccc12` [Compound 22, 2-[(7-Chloroquinolin-4-yl)sulfanyl]ethyl-2-methoxybenzoate] showed a melting point of 98 to 99 °C. `COc1cc(OC)cc(C(=O)OCCCSc2ccnc3cc(Cl)ccc23)c1` [Compound 27, 3-[(7-Chloroquinolin-4-yl)sulfanyl]propyl-3,5-dimethoxybenzoate] had a melting point of 148 °C. The value for `COc1ccc(OC)c(C(=O)OCCSc2ccnc3cc(Cl)ccc23)c1` [Compound 8, 2-[(7-Chloroquinolin-4-yl)sulfanyl]ethyl-2,5-dimethoxybenzoate] was 98 to 100 °C; that for `O=C(OCCCSc1ccnc2cc(Cl)ccc12)c1cccc(Cl)c1` [Compound 33, 3-[(7-Chloroquinolin-4-yl)sulfanyl]propyl-3-chlorobenzoate] was 96 to 98 °C; that for `CC(C)(C)c1ccc(C(=O)OCCSc2ccnc3cc(Cl)ccc23)cc1` [Compound 21, 2-[(7-Chloroquinolin-4-yl)sulfanyl]ethyl-4-tert-butylbenzoate] was 120 to 122 °C.

In the case of `O=C(OCCCSc1ccnc2cc(Cl)ccc12)c1ccccc1Cl` [Compound 32, 3-[(7-Chloroquinolin-4-yl)sulfanyl]propyl-2-chlorobenzoate], the melting point is 100 to 102 °C.

One may read the melting point as the temperature, or range, at which the solid turns liquid.
